In ChEMBL document CHEMBL1201862, “PubChem BioAssay data set” (2004):
Activity calls are given as the source filed them.

Key:
[1] = blockers of HIV-1 envelope-mediated cell-cell fusion – cherry-pick, dose response (AID 652057); format: functional, cell-based
[2] = HIV-1 AD8 envelope cell-cell fusion blockers – cherry-pick, dose response (AID 652062); format: functional, cell-based;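 note: luciferase signal from cell-cell fusion driven by HIV-1 clade B AD8 Env; potency is for inhibitors of fusion seen as a drop in luminescence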
[3] = biological target: Luciferin 4-monooxygenase (Photinus pyralis, UniProt P08659); test: inhibition of purified Photinus pyralis luciferase – biochemical, luminescence, dose response (AID 1891)
[4] = Luminescence Cell-Based Dose Confirmation HTS to Identify Inhibitors of Platelet Dense Granule Release. [Related pubchem assays: 1663 (Primary HTS), 1678 (Summary of Project)]; format: functional
[5] = biological target: FAD-linked sulfhydryl oxidase ALR (Homo sapiens, UniProt P55789); test: ALR-catalysed DTT oxidation blockers – biochemical, H2O2 detection, luminescence, cherry-pick, dose response (AID 493248)
[6] = Luminescence Cell-Based Dose Confirmation HTS to Identify Activators of 5'UTR Stem-Loop Driven Alpha-Synuclein mRNA Translation in H4 Neuroglioblastoma Cells. [Related pubchem assays: 1829 (Project Summary), 1814 (Primary HTS)]; format: functional
[7] = Luminescence Cell-Based Dose Response HTS to Identify Activators of Luciferase Translation or Activity in H4 […] Cells. [Related pubchem assays: 1829 (Project Summary), 1814 (Primary HTS)]; format: functional
[8] = system: H4; test: Luminescence Cell-Based Dose Response HTS to Identify Activators of 5'UTR Stem-Loop Driven Prion Protein mRNA Translation in H4 Neuroglioblastoma Cells. [Related pubchem assays: 1829 (Project Summary), 1814 (Primary HTS)]; format: functional; conditions: Homo sapiens
[9] = biological target: T1, Corticotropin-releasing factor receptor 2/Corticotropin-releasing factor-binding protein (Homo sapiens, UniProt P24387+Q13324); test: Dose Response confirmation of uHTS hits for small molecule antagonists of the CRF-binding protein and CRF-R2 receptor complex.; format: functional; conditions: read-out: IC50_Mean
T1 sequence (Q13324 whole entry): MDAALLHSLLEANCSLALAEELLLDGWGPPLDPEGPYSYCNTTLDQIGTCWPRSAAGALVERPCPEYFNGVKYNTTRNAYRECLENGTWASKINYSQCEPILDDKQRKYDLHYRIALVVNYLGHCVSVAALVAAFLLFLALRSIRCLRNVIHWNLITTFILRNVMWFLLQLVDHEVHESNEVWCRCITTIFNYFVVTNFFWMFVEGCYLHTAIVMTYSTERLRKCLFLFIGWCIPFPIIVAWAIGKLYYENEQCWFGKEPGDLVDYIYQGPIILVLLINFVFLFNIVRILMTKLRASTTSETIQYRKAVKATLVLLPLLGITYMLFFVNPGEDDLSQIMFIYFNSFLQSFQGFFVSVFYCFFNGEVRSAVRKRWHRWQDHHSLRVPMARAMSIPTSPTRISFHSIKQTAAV
T1 sequence (P24387 whole entry): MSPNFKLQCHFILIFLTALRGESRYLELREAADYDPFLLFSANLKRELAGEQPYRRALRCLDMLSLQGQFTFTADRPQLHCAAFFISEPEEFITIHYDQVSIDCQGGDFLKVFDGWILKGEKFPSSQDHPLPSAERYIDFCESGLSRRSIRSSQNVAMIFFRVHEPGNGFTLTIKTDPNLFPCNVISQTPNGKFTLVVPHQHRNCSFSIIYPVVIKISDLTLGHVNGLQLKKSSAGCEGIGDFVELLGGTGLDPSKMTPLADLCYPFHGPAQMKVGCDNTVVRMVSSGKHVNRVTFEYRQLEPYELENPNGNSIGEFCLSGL

[10] = biological target: T1, Corticotropin-releasing factor receptor 2/Corticotropin-releasing factor-binding protein; test: activators of CRF receptor 2 with binding protein – uHTS hits, confirmation (AID 602473); format: functional; conditions: read-out: EC50_Mean
[11] = viability of PTEN-deleted HCT116 cells – cell-based, HCT116 PTEN knockout, dose response (AID 1047); format: functional;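 note: HCT116 colon tumor cells with PTEN knocked out; cells exposed to compound for 60 hours before readout; potency for loss of cell viability measured by luminescence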
[12] = viability of HCT116 lacking mutant beta-catenin – cell-based, human colon tumor, dose response (AID 1045); format: functional;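 note: HCT116 colon tumor cells with beta catenin knocked out; cells exposed to compound for 60 hours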
[13] = biological target: T2, Heat shock factor protein 1 (Mus musculus, UniProt P38532); test: enhancement of HSF1-driven luciferase signal – cell-based, NIH3T3, luminescence, dose retest, confirmation (AID 435004); format: functional;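 note: stress induced by proteasome inhibitor MG132 added 30 min after compound; luciferase reporter driven by HSF1 response element in NIH3T3 cells; actives raise luminescence as potentiators of the MG132 stress response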
T2 sequence (P38532 whole entry): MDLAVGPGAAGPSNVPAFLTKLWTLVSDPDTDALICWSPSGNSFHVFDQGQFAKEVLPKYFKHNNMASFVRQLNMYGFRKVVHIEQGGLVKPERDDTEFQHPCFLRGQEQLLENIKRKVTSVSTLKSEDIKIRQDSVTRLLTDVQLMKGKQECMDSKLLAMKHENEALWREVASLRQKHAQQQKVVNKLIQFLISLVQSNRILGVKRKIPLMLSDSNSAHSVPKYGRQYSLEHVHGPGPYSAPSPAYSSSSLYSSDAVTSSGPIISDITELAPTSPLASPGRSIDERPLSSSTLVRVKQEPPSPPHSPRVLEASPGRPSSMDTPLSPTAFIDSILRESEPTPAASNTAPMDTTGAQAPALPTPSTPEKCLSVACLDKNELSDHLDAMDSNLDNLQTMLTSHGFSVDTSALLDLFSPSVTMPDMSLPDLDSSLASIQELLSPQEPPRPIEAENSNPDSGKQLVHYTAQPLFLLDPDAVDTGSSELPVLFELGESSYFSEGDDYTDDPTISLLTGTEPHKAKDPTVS

[14] = P. falciparum Dd2 growth inhibitors, dose response, SYBR Green, cherry-picked samples (AID 1159567); format: functional, cell-based

Sequence of Luciferin 4-monooxygenase (P08659 whole entry): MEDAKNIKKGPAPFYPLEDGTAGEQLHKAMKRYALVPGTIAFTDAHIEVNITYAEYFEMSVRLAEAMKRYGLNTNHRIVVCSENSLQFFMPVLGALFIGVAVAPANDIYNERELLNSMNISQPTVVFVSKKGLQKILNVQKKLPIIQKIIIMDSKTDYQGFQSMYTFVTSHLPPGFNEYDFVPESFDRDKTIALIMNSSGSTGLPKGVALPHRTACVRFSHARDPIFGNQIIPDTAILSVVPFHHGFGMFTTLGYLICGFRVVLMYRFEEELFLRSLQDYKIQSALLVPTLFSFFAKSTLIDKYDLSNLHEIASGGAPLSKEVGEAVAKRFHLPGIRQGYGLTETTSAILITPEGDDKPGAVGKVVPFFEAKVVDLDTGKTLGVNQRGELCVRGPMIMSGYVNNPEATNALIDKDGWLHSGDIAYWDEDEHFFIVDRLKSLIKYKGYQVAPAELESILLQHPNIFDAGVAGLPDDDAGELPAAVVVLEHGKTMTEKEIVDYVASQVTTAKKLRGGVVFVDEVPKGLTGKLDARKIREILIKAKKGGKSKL
Sequence of FAD-linked sulfhydryl oxidase ALR (P55789 whole entry): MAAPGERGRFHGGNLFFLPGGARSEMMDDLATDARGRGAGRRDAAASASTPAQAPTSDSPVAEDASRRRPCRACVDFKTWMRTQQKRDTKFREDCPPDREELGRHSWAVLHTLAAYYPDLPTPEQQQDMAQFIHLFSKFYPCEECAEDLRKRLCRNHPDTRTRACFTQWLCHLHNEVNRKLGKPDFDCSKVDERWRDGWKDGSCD

With `C[C@H](CO)N1C[C@H](C)[C@H](CN(C)S(=O)(=O)c2ccccc2)Oc2ccc(NS(=O)(=O)c3ccccc3)cc2CC1=O` the AC50 [1] was 8.48 µM (active) and the AC50 [2] was 13.6 µM (active).
For `O=C(Nc1ccc(Cl)c(Cl)c1)Nc1ccccc1C(=O)O`, the EC50 [3] was 0.12 µM (active), the EC50 [4] was 8.59 µM (active) and the AC50 [5] was 0.182 µM (active).
With `C[C@@H]1CN([C@H](C)CO)C(=O)c2cccc(NS(=O)(=O)c3ccccc3)c2O[C@@H]1CN(C)Cc1ccc(Cl)c(Cl)c1` the AC50 [1] was < 0.26 µM (active) and the AC50 [2] was 1.67 µM (active).
For `Cc1ccc(OCn2c(=O)sc3ccccc32)cc1`, the EC50 [6] was 42 µM (active), the EC50 [7] was 35.3 µM (active) and the EC50 [8] was 14 µM (active). The IC50 [9] was > 47.1 µM (inactive) and the EC50 [10] was > 53 µM (inactive).
For `Clc1nccnc1N/N=C/c1ccc(Br)cc1`, the EC50 [3] was 2.82 µM (active) and the EC50 [4] was 4.81 µM (active).
In the case of `CCN1C(=O)[C@H]2[C@@H](c3ccc(C(F)(F)F)cc3)N[C@]3(CCCN(Cc4ccccc4)C3=O)[C@H]2C1=O`, the AC50 [2] is reported as 0.682 µM (active).
With `CCn1c2ccccc2c2cc(NC(=O)CSc3nnc(-c4cccc(OC)c4)n3N)ccc21` the EC50 [11] was 32.1 µM (active), the EC50 [12] was 31.5 µM (active) and the EC50 [13] was 33.9 µM (active).
With `COc1cccc(C(=O)Nc2ccc(Cl)c(C(F)(F)F)c2)c1` the EC50 [11] was 43.3 µM (active) and the EC50 [12] was 60.1 µM (active).
With `N#C[C@@H]1[C@H](c2ccccc2-c2cccc(F)c2)[C@@H](CO)N1C(=O)C1CCCC1` the AC50 [14] was 4.79 µM (active).
With `COc1ccc(S(=O)(=O)N(C)C[C@@H]2Oc3ccc(N(C)C)cc3C(=O)N([C@H](C)CO)C[C@@H]2C)cc1` the AC50 [1] was 12 µM (active) and the AC50 [2] was 26.4 µM (active).
For `Cc1ccc(-c2csc3nnc(SCC(=O)N4CCN(Cc5ccccc5)CC4)n23)cc1`, the IC50 [9] was > 47.1 µM (inactive) and the EC50 [10] was > 53 µM (inactive).
In the case of `CC1CCC(NC(=O)CCN2C(=O)C3CC=CCC3C2=O)CC1` (centres undefined), the IC50 [9] is reported as > 47.1 µM (inactive) and the EC50 [10] is reported as > 53 µM (inactive).
With `COc1ccc(/C=C2\SC(=S)N(CC(=O)NCCO)C2=O)cc1` the IC50 [9] was > 47.1 µM (inactive) and the EC50 [10] was > 53 µM (inactive).
In the case of `COc1ccc(CNc2oc(COc3ccccc3)nc2C#N)cc1`, the IC50 [9] is reported as > 47.1 µM (inactive) and the EC50 [10] is reported as > 53 µM (inactive).
For `CCCNC(=O)COC(=O)/C=C/c1ccco1`, the EC50 [3] was > 112 µM (not active) and the EC50 [4] was > 112 µM (not active).
In the case of `COc1ccccc1C#Cc1ccc2c(c1)[C@H]1[C@H](CCN1C(=O)CN1CCOCC1)[C@@H](CO)N2`, the AC50 [14] is reported as 5.01 µM (active).
In the case of `C=CCn1c(C)cc(C(=O)CSc2nnc(Cc3ccccc3)o2)c1C`, the IC50 [9] is reported as > 47.1 µM (inactive) and the EC50 [10] is reported as > 53 µM (inactive).
In the case of `CCCN1[C@H](C(=O)N[C@@H](C)c2ccccc2)[C@@H](CO)[C@@H]2Cn3c(ccc(-c4cccc(F)c4)c3=O)[C@@H]21`, the AC50 [1] is reported as 41.5 µM (active).
With `COc1ccc(CCNC(=O)CSc2nc(N)c3c(C)c(C)oc3n2)cc1OC` the EC50 [3] was > 112 µM (not active) and the EC50 [4] was > 112 µM (not active).
